The source of these data is patent EP0705258B1, “AZOLYL-CYCLIC AMINE DERIVATIVES WITH IMMUNOMODULATORY ACTIVITY” (Knoll AG, priority 1993, dated 1995).

Where a name gives a salt, the structure may show the parent alone. Some results are limits rather than exact numbers.

The assay relates to lymphocyte proliferation (BALB/c responder and mitomycin C treated C57BL/6 stimulator spleen cells). Description: Mixed Lymphocyte Reaction (Test A), one-way MLR, tritiated thymidine incorporation. The assay is classed as cell-based, mice. The note with it: Mus musculus; concentration causing 50% inhibition of lymphocyte proliferation, by linear interpolation; ≤ = active at this concentration but not tested at lower doses. On the procedure: A mixed lymphocyte reaction (MLR) occurs when lymphocytes from two genetically dissimilar individuals, or inbred strains of mice are cultured together. An MLR results in the activation and proliferation of lymphocytes, which is measured by the incorporation of radiolabelled thymidine into the cellular DNA synthesised during cell division. A 'one-way' MLR is used to determine the immunosuppressive activity of test compounds in vitro. In this reaction one population of spleen cells serves as the stimulator cells and is treated with mitomycin C to prevent cell division. Spleen cells from a second allogeneic population (responder cells) are untreated and when mixed with the stimulator cells are able to undergo division which is measured. The degree of proliferation is measured in the presence and absence of test compound to assess the immunosuppressive activity of the compound.
The techniques for carrying out lymphocyte proliferation assays including MLRs are well known, eg Bradley, pages 156-166, in Mishell and Shiigi, Eds. Selected Methods in Cellular Immunology (Freeman, San Francisco, 1980); and Battisto et al, methods in Enzymology 1987; 150: 83-91. Various slight modifications of these techniques are in use and that used herein is described in Gibb, Webber and Bowen, J Immunological Methods 1985; 81: 107-113.
Cell suspensions obtained from the spleens of female BALB/c and C57BL/6 strain mice of between 6 and 9 weeks of age were used as sources of responder and stimulator cells respectively. The mice were killed using a rising concentration of CO2 and the spleens removed aseptically and teased using a scalpel and forceps to produce a single cell suspension in Hanks balanced salt solution (HBSS). The suspensions were filtered through cell strainers (Falcon), sedimented by centrifugation and resuspended in Tris-buffered ammonium chloride pH 7.2 (medium D) to lyse the erythrocytes. The cells were sedimented again and washed twice in HBSS before resuspending in complete RPMI 1640 tissue culture medium (medium E). The C57BL/6 cells were resuspended to 9 mls per spleen and a solution of mitomycin C at 400 µg/ml in medium E added to give a final concentration of 40 µg/ml. After incubation of the C57BL/6 cells at 37°C for 30 minutes in an atmosphere of 5% CO2 and 95% air, the cells were sedimented and washed 3 times in medium E. Both cell suspensions were diluted in medium E to 5 x 10^6 cells/ml. 100µl of each of the responder and stimulator cell suspensions were aliquoted into the wells of 96 well flat bottom microtitre plates containing 50 µl of test compound at an appropriate dilution (initially 50 µM diluted in medium E from a stock solution at 100 mM in dimethyl sulphoxide) giving a final test compound concentration of 10 µM (final dilution). Compounds active at this concentration were tested at further final dilution of 1 µM, 0.1 µM and 0.01 µM and 0.001 µM to determine the concentration of test compound which causes 50% inhibition of the immune response (IC50). After four days of culture at 37°C in a humidified atmosphere of 5% CO2 and 95% air, 1 µCi of tritiated thymidine in 20 µl of medium E was added to each well and the plates incubated for a further 24 hours. Cells were then harvested onto Inotech G7 glass fibre filter mats using an Inotech cell harvester. The filters were transferred to vials to which 2 ml of Packard Emulsifier-Safe scintillation fluid was added and the radioactivity from the incorporated thymidine was counted in a Packard liquid scintillation counter. The counts per minute (CPM) reflect the degree of lymphocyte proliferation. The data were analysed to determine the percentage inhibition of lymphocyte proliferation by the test compound. […]
(Uptake of a labelled nucleoside into DNA is a usual measure of proliferation.)
For orientation: IC50 means the midpoint of a concentration-inhibition curve. Molecule `O=C(CCc1ccccc1)N1CCC(CCn2ccnc2)CC1` [Example 50, 4-[2-(imidazol-1-yl)ethyl]-1-(3-phenylpropionyl)piperidine] yielded an IC50 of 200 nM.
Consider `O=C(CCc1ccccc1)N1CCC(CCCn2ccnc2)CC1` [Example 56, 4-[3-(Imidazol-1-yl)propyl]-1-(3-phenylpropionyl)piperidine], for which the IC50 is at most 1000 nM.
Regarding `CC(C)c1nccn1CCC1CCN(C(=O)CCc2ccccc2)CC1` [Example 58, 4-[2-(2-Isopropylimidazol-1-yl)ethyl]-1-(3-phenylpropionyl)piperidine], the concentration for half-maximal inhibition (IC50) was 4 nM.
The result for `CCCCCCCCCCCc1nccn1CCC1CCN(C(=O)CCc2ccccc2)CC1` [Example 62, 1-(3-Phenylpropionyl)-4-[2-(2-undecylimidazol-1-yl)ethyl]piperidine] reads 1900 nM; that for `Cc1nc2ccccc2n1CCC1CCN(C(=O)CCc2ccccc2)CC1` [Example 65, 2-Methyl-1-{2-[1-(3-phenylpropionyl)-piperidin-4-yl]ethyl}benzimidazole], 3800 nM.
For the molecule `CCc1nccn1CC1CCN(C(=O)CCc2ccccc2)CC1` [Example 66, 4-(2-Ethylimidazol-1-ylmethyl)-1-(3-phenylpropionyl)piperidine], the IC50 is at most 1000 nM.
In turn, `Cc1nccn1CCC1CCN(C(=O)CCc2ccccc2)CC1` [Example 72, 4-[2-(2-Methylimidazol-1-yl)ethyl]-1-(3-phenylpropionyl)piperidine] displayed an IC50 of 30 nM.
As to `Cc1nccn1CCC1CCN(C(=O)CCCc2ccccc2)CC1` [Example 82, 4-[2-(2-Methylimidazol-1-yl)ethyl]-1-(4-phenylbutyroyl)piperidine], the half-inhibitory concentration (IC50) is at most 1000 nM.
As for `O=C(CCCc1ccccc1)N1CCC(CCn2ccnc2)CC1` [Example 85, 4-[2-(Imidazol-1-yl)ethyl]-1-(4-phenylbutyroyl)piperidine], the half-maximal inhibitory concentration (IC50) turned out to be 600 nM.
The molecule `Cc1ccc(CCC(=O)N2CCC(CCn3ccnc3C)CC2)cc1` [Example 94, 4-[2-(2-methylimidazol-1-yl)ethyl]-1[3-(4-methylphenyl)propionyl]piperidine] had an IC50 of at most 1000 nM.
The result for `c1ccc(CCCC2CCN(CCn3cncn3)CC2)cc1` [Example 97, 1-[2-(1H-1,2,4-triazol-1-yl)ethyl]-4-(3-phenylpropyl)-piperidine dihydrochloride] reads 2300 nM; that for `Cc1nccn1CCC1CCN(CCCc2ccc(Cl)cc2)CC1` [Example 105, 1-[3-(4-Chlorophenyl)propyl]-4-[2-(2-methylimidazol-1-yl)ethyl]piperidine], at most 1000 nM; that for `c1ccc(CCCN2CCC(CCn3cnc(-c4ccccc4)c3-c3ccccc3)CC2)cc1` [Example 108, 4-[2-(4,5-Diphenylimidazol-1-yl)ethyl]-1-(3-phenylpropyl)piperidine], 1200 nM.
The result for `c1ccc(CCCN2CCC(CCn3ccnn3)CC2)cc1` [Example 119, 1-(3-Phenylpropyl)-4-[2-(1H-1,2,3-triazol-1-yl)ethyl]piperidine] reads 2400 nM.
